Data on three compounds can be found in patent US11584746B2, “Inhibitors of EGFR and methods of use thereof” (DANA-FARBER CANCER INSTITUTE, INC., priority 2018, dated 2023).

pEC50, pIC50: −log10 of the molar value. Read-outs that look alike come from different tables or passages of the source. Bounds are passed on as bounds.

The subject of assay [1] is patients with NSCLC resistant to gefitinib or erlotinib. The settings on record: cited from earlier work.
Assay [2] has as its system EGFR T790M/L858R Ba/F3 cell line. As to the kind of experiment: Ba/F3 cell proliferation (MTS assay), EGFR T790M/L858R. The format is cell-based, murine. The settings on record: for inhibition at 1 µM: compound at 1 μM, EGFR T790M/L858R Ba/F3, read-out: Inhibition of proliferation, Activity (% DMSO control). On the procedure: The selectivity between wild-type EGFR and EGFR containing one or more mutations as described herein can also be measured using cellular proliferation assays where cell proliferation is dependent on kinase activity. […] Proliferation assays are performed at a range of inhibitor concentrations (e.g., 10 μM, 3 μM, 1.1 μM, 330 nM, 110 nM, 33 nM, I1 nM, 3 nM, 1 nM) and an EC50 is calculated.
All cell lines were maintained in RPMI 1640 (Cellgro; Mediatech Inc., Herndon, Calif.) supplemented with 10% FBS 100 units/mL penicillin, 100 units/mL streptomycin, and 2 mM glutamine. […] The EGFR I941R mutation was introduced via site directed mutagenesis using the Quick Change Site-Directed Mutagenesis kit (Stratagene; La Jolla, Calif.) according to the manufacturer's instructions. All constructs were confirmed by DNA sequencing. The constructs were shuttled into the retroviral vector JP1540 using the BD Creator™ System (BD Biosciences). Ba/F3 cells were infected with retrovirus and according to standard protocols, as described previously (Zhou 2009). Stable clones were obtained by selection in puromycin (2 μg/ml).
Growth and inhibition of growth was assessed by MTS assay and was performed according to previously established methods (Zhou 2009). The MTS assay is a colorimetric method for determining the number of viable cells that is based on the bioreduction of MTS by cells to a formazan product that is soluble in cell culture medium and can be detected spectrophotometrically. […] All experimental points were set up in six wells and all experiments were repeated at least three times. […] The curves were fitted using a non-linear regression model with a sigmoidal dose response.
For orientation: Tetrazolium dyes change colour on reduction, which living cells bring about.

In assay [3] the test system is EGFR L858R/T790M/C797S Ba/F3 cell line. Put plainly: Ba/F3 cell proliferation (MTS assay), EGFR L858R/T790M/C797S. Type of assay: cell-based, murine. Conditions: Mus musculus, BaF3, compound at 1 μM, read-out: Inhibition of proliferation, Activity (% DMSO control). From the text: The selectivity between wild-type EGFR and EGFR containing one or more mutations as described herein can also be measured using cellular proliferation assays where cell proliferation is dependent on kinase activity. For example, murine Ba/F3 cells transfected with a suitable version of wild-type EGFR (such as VIII; containing a WT EGFR kinase domain), or Ba/F3 cells transfected with L858R/T790M, Del/T790M/L718Q, L858R/T790M/L718Q, L858R/T790M/C797S, Del/T790M/C797S, L858R/T790M/I941R, or Exon 19 deletion/T790M can be used. Proliferation assays are performed at a range of inhibitor concentrations (e.g., 10 μM, 3 μM, 1.1 μM, 330 nM, 110 nM, 33 nM, I1 nM, 3 nM, 1 nM) and an EC50 is calculated.
The EGFR mutant L858R, Del E746_A750, L858R/T790M, DelE746_A750/T790M, L858R/T790M/C797S and Del/T790M/C797S Ba/F3 cells were previously described (Zhou et al., Nature 462, (2009), 1070-1074). All cell lines were maintained in RPMI 1640 (Cellgro; Mediatech Inc., Herndon, Calif.) supplemented with 10% FBS 100 units/mL penicillin, 100 units/mL streptomycin, and 2 mM glutamine. L858R cells were maintained in ACL-4 media (Invitrogen, Carlsbad, Calif.) supplemented with 5% FBS, 100 units/mL penicillin, 100 units/mL streptomycin, and 2 mM glutamine. The EGFR I941R mutation was introduced via site directed mutagenesis using the Quick Change Site-Directed Mutagenesis kit (Stratagene; La Jolla, Calif.) according to the manufacturer's instructions. All constructs were confirmed by DNA sequencing. The constructs were shuttled into the retroviral vector JP1540 using the BD Creator™ System (BD Biosciences). Ba/F3 cells were infected with retrovirus and according to standard protocols, as described previously (Zhou 2009). Stable clones were obtained by selection in puromycin (2 μg/ml).
Growth and inhibition of growth was assessed by MTS assay and was performed according to previously established methods (Zhou 2009). The MTS assay is a colorimetric method for determining the number of viable cells that is based on the bioreduction of MTS by cells to a formazan product that is soluble in cell culture medium and can be detected spectrophotometrically. Ba/F3 cells of different EGFR genotypes were exposed to treatment and the number of cells used per experiment determined empirically and has been previously established (Zhou 2009). All experimental points were set up in six wells and all experiments were repeated at least three times. […] The curves were fitted using a non-linear regression model with a sigmoidal dose response.

Assay [4] has as its target recombinant EGFR T790M/L858R kinase (Homo sapiens (Human), UniProt P00533, L858R/T790M). As to the kind of experiment: HTRF-based EGFR biochemical assay. On the procedure:
EGFR biochemical assays are carried out using a homogeneous time-resolved fluorescence (HTRF) assay. The reaction mixtures contain biotin-Lck-peptide substrate, wild type, or mutant EGFR enzyme in reaction buffer. Enzyme concentrations are adjusted to accommodate varying kinase activity and ATP concentrations. Compounds of the present application are diluted into the assay mixture and IC50 values are determined using 12-point inhibition curves.
EGFR kinase proteins were purified by glutathione-affinity chromatography followed by size-exclusion chromatography after cleavage with TEV or thrombin to remove the GST fusion partner following established procedures. (Yun 2008; Yun 2007).
EGFR biochemical assays were carried out using a homogeneous time-resolved fluorescence (HTRF) assay as described previously. The reaction mixtures contained 1 μM biotin-Lck-peptide substrate, wild type or mutant EGFR enzyme in reaction buffer (50 mM HEPES pH 7.1, 10 mM MgCl2, 0.01% BSA. 1 mM TCEP and 0.1 mM Na3VO4) at a final volume of 10 μL. […] All reactions were carried out at room temperature in white ProxiPlate™ 384-well Plus plates (PerkinElmer) and were quenched with 5 μL of 0.2 M EDTA at 60 min. Five μL per well of the detection reagent containing 2.5 ng PT66K (Cis-bio) and 0.05 μg SAXL (Prozyme) were added, and the plates were then incubated at room temperature for 1 hour and read with an EnVision plate reader.
(TR-FRET usually uses a lanthanide donor and a delayed reading to cut background.)

[5] abbreviates: Mus musculus, BaF3, read-out: Ba/F3 cellular activity (EC50) T790M/L858R.
Setting [6] is: read-out: Ba/F3 cellular activity (EC50) T790M/L858R + Cetuximab (1 μg/mL), presence of 1 μg/mL cetuximab.

Sequence of recombinant EGFR T790M/L858R kinase (P00533 696-1022 T790M/L858R): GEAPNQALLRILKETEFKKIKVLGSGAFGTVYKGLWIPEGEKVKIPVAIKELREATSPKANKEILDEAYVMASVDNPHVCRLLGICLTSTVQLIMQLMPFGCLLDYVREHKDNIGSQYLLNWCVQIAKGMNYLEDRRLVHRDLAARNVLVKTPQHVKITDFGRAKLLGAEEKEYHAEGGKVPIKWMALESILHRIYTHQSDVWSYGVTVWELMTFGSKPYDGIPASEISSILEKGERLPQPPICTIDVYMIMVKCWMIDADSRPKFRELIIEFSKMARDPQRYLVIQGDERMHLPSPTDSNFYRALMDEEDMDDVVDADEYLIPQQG

With `CN(C)C/C=C/C(=O)Nc1cc2c(Nc3ccc(F)c(Cl)c3)ncnc2cc1O[C@H]1CCOC1` [Afatinib], in assay [1], the RR was < 10%.

One may read the pIC50 as −log10 of the IC50, conventionally taken in molar units. For `O=C1c2cc(-c3ccc(N4CCNCC4)cc3)ccc2Nc2ccccc2N1Cc1ccccc1` [Compound I-11], the inhibition at 1 µM in assay [2] (Mus musculus, BaF3) is ≥ 75%; in assay [3] it was ≥ 75%. The pEC50 was ≤ 6.12 in assay [2] (setting [5]) and 6.30 to 6.60 in assay [2] (setting [6]). Further, the pIC50 in assay [4] is > 6.60.

Turning to `CN1CCC(n2cc(-c3ccc4c(c3)C(=O)N(Cc3ccccc3)c3cc(F)ccc3N4)cn2)CC1` [Compound I-3], the inhibition at 1 µM is ≥ 75% in assay [2] (Mus musculus, BaF3) and ≥ 75% in assay [3]. For the same compound, the pEC50 was ≤ 6.12 in assay [2] (setting [5]) and > 6.60 in assay [2] (setting [6]). Further, in assay [4], the pIC50 is > 6.60.
